Blank lines part the entries; values can stand above or below the compound they belong to.
What was measured:
[1] = biological target: Serine/threonine-protein kinase 26 (Homo sapiens, UniProt Q9P289); settings: at 10 µM
[2] = biological target: T1, Ankyrin repeat and protein kinase domain-containing protein 1 (Homo sapiens) (UniProt Q8NFD2); assay: Selectivity interaction (KinomeScan (DiscoverX)) EUB0001619a ANKK1; settings: at 1 µM
T1 sequence (whole entry): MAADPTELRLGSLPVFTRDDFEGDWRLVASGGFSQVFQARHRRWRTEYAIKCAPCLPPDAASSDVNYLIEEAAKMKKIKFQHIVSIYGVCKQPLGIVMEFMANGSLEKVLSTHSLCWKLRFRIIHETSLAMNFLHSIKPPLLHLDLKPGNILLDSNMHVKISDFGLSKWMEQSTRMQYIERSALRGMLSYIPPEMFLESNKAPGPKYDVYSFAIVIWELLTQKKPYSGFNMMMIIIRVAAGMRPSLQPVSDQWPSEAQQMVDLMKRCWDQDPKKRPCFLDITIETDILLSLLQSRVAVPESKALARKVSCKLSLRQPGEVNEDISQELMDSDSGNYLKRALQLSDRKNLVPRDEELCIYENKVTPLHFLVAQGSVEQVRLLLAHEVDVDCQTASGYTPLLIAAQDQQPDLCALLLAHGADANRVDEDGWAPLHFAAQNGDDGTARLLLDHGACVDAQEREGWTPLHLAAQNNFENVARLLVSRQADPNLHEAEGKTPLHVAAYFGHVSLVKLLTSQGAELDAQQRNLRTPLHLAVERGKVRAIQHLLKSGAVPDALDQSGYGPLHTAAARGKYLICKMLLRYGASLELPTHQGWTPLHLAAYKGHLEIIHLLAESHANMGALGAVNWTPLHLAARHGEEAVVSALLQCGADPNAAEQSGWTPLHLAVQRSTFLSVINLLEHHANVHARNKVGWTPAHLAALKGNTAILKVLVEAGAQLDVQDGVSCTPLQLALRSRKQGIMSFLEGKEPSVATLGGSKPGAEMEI

[3] = biological target: Tyrosine-protein kinase Fyn (Homo sapiens) (UniProt P06241); assay: Selectivity interaction (KinomeScan (DiscoverX)) EUB0001619a FYN; settings: at 1 µM
Sequence of Tyrosine-protein kinase Fyn (Homo sapiens) (P06241 2-537 limits assumed): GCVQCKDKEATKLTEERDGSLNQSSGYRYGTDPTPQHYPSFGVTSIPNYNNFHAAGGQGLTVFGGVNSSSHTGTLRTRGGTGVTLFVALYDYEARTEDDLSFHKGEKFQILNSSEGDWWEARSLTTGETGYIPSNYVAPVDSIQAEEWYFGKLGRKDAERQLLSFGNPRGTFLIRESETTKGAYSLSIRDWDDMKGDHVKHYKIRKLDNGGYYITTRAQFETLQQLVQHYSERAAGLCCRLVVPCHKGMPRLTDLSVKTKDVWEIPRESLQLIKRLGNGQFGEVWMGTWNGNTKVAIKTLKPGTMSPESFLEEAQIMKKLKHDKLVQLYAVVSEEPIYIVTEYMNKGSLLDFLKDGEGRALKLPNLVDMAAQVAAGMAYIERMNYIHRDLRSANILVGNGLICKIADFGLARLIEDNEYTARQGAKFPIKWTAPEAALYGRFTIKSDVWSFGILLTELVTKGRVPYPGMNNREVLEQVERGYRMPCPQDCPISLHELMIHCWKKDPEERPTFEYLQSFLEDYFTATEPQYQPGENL

[4] = biological target: Vascular endothelial growth factor receptor 3 (Homo sapiens, UniProt P35916); assay: Selectivity interaction (KinomeScan (DiscoverX)) EUB0001619a FLT4; settings: at 1 µM
Sequence of Vascular endothelial growth factor receptor 3 (P35916 whole entry): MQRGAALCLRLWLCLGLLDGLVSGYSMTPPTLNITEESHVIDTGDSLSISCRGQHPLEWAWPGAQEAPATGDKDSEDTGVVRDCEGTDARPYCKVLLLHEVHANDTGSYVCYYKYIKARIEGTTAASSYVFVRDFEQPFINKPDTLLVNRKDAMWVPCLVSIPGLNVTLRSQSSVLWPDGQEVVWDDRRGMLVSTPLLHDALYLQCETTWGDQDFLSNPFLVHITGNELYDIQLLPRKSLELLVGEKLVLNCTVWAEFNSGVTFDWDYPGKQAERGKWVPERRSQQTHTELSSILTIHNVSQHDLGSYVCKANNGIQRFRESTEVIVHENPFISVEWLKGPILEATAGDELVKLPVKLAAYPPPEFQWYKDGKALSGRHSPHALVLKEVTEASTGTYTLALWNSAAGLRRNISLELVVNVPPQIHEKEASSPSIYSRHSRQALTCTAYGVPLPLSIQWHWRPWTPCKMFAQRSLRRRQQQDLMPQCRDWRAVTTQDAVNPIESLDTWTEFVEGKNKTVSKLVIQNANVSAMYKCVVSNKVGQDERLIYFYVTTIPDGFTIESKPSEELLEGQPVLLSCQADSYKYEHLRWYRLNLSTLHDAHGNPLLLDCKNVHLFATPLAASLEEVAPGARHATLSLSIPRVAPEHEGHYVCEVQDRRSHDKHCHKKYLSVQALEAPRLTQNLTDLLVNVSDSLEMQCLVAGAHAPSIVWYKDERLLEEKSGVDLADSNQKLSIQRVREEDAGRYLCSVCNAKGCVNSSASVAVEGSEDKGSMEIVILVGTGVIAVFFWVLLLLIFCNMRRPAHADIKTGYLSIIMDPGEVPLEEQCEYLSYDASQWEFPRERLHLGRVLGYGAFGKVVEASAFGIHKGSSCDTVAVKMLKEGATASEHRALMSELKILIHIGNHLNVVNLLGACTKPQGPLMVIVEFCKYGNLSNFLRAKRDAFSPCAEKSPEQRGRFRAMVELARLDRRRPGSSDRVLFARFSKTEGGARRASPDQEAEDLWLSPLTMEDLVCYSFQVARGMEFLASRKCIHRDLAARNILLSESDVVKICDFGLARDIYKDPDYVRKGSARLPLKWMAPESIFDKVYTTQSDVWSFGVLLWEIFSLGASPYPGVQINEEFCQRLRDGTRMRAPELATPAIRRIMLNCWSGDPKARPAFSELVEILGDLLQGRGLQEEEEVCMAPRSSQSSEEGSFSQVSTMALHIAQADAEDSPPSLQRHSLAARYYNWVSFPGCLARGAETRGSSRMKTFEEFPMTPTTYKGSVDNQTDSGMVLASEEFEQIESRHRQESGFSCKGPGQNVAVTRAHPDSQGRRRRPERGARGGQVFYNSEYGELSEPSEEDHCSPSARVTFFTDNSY

[5] = biological target: T2, Serine/threonine-protein kinase TAO3 (Homo sapiens) (UniProt Q9H2K8); assay: Selectivity interaction (Upstate Kinase Profiler service (Millipore)) EUB0000056c TAOK3; settings: at 1 µM
T2 sequence (whole entry): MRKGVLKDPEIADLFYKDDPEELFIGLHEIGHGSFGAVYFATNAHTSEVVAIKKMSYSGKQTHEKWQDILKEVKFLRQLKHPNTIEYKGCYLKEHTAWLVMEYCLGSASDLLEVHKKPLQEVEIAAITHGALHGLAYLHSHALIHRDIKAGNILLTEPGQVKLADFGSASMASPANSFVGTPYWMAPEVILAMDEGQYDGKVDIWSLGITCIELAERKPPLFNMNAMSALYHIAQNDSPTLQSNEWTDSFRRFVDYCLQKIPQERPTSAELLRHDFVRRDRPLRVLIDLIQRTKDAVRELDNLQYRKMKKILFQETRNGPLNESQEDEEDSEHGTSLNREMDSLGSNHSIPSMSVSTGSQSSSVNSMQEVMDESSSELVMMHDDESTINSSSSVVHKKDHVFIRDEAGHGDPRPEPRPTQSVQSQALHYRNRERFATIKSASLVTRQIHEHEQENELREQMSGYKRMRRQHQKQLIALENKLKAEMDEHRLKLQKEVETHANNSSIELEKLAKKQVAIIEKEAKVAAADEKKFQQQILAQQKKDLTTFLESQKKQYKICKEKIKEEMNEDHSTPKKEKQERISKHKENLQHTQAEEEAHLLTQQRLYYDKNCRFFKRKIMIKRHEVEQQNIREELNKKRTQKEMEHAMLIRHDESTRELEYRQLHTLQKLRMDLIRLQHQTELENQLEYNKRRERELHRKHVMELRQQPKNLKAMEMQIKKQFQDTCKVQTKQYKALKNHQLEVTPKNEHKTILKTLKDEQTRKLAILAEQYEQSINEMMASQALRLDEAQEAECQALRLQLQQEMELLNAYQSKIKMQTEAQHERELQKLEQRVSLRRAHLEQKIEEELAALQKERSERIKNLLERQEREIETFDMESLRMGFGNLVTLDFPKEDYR

[6] = biological target: Calcium/calmodulin-dependent protein kinase type II subunit gamma (Homo sapiens) (UniProt Q13555); assay: Selectivity interaction (Kinase panel (KiNativ target engagement assay in Jurkat cells)) EUB0001635a CAMK2G; format: cell-based; settings: Selectivity number of off-targets 0.0, Selectivity number of targets 233.0, Source Knowledge https://www.sciencedirect.com/science/article/pii/S2451945619300674?via%3Dihub, at 1 µM
Sequence of Calcium/calmodulin-dependent protein kinase type II subunit gamma (Homo sapiens) (Q13555 whole entry): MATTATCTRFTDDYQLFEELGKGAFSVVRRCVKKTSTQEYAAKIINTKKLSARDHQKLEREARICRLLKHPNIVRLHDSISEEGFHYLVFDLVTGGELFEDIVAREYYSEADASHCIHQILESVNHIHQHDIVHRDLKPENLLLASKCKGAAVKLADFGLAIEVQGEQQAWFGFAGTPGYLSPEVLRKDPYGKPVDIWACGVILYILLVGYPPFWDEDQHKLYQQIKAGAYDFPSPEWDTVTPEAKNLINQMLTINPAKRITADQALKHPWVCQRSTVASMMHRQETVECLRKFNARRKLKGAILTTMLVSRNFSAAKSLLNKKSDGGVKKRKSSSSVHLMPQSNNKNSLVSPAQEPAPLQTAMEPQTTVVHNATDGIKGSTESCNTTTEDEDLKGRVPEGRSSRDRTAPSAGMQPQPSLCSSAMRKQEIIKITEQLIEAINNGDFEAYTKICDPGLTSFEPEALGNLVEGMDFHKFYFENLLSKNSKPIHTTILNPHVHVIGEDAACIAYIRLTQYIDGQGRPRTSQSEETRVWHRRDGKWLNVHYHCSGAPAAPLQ

[7] = biological target: Dual specificity protein kinase CLK3 (Homo sapiens, UniProt P49761); assay: Selectivity interaction (ProQinase) EUB0000171b CLK3
Sequence of Dual specificity protein kinase CLK3 (P49761 whole entry, looked up): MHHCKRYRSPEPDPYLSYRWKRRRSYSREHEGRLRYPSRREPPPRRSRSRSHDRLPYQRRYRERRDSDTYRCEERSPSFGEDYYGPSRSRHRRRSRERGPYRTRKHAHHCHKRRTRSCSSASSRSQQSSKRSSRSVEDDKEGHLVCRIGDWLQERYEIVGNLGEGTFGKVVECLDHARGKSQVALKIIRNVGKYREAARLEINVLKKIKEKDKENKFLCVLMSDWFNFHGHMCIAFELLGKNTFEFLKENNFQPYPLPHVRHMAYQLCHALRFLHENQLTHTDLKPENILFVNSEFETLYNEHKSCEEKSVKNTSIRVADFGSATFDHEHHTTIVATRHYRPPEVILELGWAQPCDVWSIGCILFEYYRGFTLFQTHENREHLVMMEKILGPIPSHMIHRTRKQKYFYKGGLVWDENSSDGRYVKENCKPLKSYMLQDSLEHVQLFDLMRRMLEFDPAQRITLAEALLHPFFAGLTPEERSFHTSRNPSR

Sequence of Serine/threonine-protein kinase 26 (Q9P289 2-416 limits assumed): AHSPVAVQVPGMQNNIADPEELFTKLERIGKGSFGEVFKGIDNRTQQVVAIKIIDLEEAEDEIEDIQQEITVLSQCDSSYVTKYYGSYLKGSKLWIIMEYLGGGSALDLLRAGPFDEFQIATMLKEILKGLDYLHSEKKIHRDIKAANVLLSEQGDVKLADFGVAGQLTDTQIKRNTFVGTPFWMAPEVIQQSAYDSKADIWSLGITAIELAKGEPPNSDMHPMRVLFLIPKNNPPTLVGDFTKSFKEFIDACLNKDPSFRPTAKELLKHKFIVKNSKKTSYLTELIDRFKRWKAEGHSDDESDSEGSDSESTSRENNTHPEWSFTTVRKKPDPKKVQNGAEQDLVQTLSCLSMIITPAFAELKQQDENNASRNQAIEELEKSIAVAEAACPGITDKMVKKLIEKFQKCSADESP

Structure (SMILES): N#Cc1cccc(-c2c[nH]c3ncnc(N4CCOCC4)c23)c1
% of control [2]: 98%
% of control [3]: 86%
% of control [4]: 100%

Structure (SMILES): C=CC(=O)Nc1ccc(C(=O)Nc2[nH]nc3c2CN(C(=O)N[C@H](CN(C)C)c2ccccc2)C3(C)C)cc1
% of engagement [6]: 35.8%

Results, then the compound that gave them:

% of control [1]: 100%
Structure (SMILES): CCN(CC)CCCCNc1ncc2cc(-c3cc(OC)cc(OC)c3)c(NC(=O)NC(C)(C)C)nc2n1

% of inhibition [5]: 19%
Structure (SMILES): Cc1ccc(-c2ccc3c(ccc4sc5c(c43)NC[C@@H](C)NC5=O)n2)cn1

% of control ([7]; at 1 µM): 98%
% of control ([7]; at 5 µM): 89%
Structure (SMILES): C=CC(=O)Nc1cccc(C(=O)Nc2ccc(Nc3cc(-c4[nH]c(SC)nc4C)ccn3)cc2)c1

— ChEMBL document CHEMBL5465560, “Selectivity Literature for EUbOPEN Chemogenomic Library” (2024)
